Data on 28 compounds can be found in patent US20220098154A1 (IDEAYA Biosciences, Inc., priority 2019, published 2022).

The target in this assay is T1, Pol theta polymerase domain (residues 1819-2590) (Homo sapiens, UniProt O75417).
T1 construct: Pol theta polymerase domain (residues 1819-2590)
T1 sequence (O75417 1819-2590): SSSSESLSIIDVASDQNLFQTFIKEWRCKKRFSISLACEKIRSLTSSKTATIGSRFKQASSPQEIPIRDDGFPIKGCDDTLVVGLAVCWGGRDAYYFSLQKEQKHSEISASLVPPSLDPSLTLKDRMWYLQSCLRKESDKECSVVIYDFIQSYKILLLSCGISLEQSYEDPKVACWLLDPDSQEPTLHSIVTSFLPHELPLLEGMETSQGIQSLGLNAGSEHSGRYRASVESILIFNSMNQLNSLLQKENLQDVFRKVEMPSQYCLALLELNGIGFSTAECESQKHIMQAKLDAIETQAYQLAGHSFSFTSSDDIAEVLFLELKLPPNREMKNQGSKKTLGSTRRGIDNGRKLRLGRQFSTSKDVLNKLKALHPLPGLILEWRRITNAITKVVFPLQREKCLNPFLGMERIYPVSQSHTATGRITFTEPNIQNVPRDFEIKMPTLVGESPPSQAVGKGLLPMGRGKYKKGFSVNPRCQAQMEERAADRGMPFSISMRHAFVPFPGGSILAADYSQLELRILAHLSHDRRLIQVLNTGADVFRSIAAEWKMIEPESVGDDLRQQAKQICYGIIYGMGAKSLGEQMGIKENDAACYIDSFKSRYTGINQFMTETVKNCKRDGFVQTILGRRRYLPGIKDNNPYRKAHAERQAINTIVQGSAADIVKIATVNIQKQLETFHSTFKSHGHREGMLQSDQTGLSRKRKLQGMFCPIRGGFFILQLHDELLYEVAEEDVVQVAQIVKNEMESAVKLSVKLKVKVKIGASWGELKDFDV
Description: Primer extension assay: inhibition of polymerase activity of Pol theta (molecular beacon fluorescence). Conditions: Pol theta polymerase domain 4 nM; 15 min pre-incubation; fluorescence change over 30 min (ex 485 nm, em 535 nm); 11-point dilution series. The class given is biochemical. As to the method: The ability of the compounds of Formula (I) to inhibit polymerase activity of Pol theta was determined using the assay described below.
A mixture of 20 uL of Pol theta polymerase domain (residues 1819-2590) at a final concentration of 4 nM in assay buffer (20 m M TRIS, pH 7.80, 50 mM KCl, 10 mM MgCl2, 1 mM DTT, 0.01% BSA, 0.01% Tween20) was added to test compounds (11-point dilution series of test compounds) except the low control wells without test compounds. The above enzyme and test compound inhibitor mixture was then incubated at room temperature for 15 min. An equal volume (20 μl) of dNTP substrate mixture (48 μM) and primed molecular beacon DNA (obtained by annealing template SEQ ID NO 2: (5′-CCTTCCTCCCGTGTCTTG-TACCTTCCCGTCA-GGAGGAAGG-3′) with 5′-TAMRA and 3′-BHQ and primer DNA (SEQ ID NO: 3; 5′-GACGGGAAGG-3′) in 10 mM Tris-HCl pH 8.0, 100 mM NaCl buffer) (96 nM) in assay buffer was added to all the test wells. The inhibition activity was measured by monitoring the fluorescence change over 30 min at 535 nm upon excitation at 485 nm. The high control (DMSO with enzyme) with high fluorescence intensity represents no inhibition of polymerase reaction while the low control (DMSO with buffer) with low fluorescence intensity represents full inhibition of polymerase activity. Slope of the reaction progress curves were used to calculate the rate of polymerization. The rates were used to determine the percent inhibition using a four-parameter inhibition model to generate IC50, Hill slope and max inhibition.
Usually IC50 stands for the midpoint of a concentration-inhibition curve. A low value points to greater potency in that assay. In turn, `CN(C(=O)CNc1nc(C(F)(F)F)cc(C(F)(F)F)c1C#N)c1ccc2occc2c1` [Example 46, N-(benzofuran-5-yl)-2-((3-cyano-4,6-bis(trifluoromethyl)pyridin-2-yl)amino)-N-methylacetamide] registered an IC50 below 0.2 µM.
Next, `CN(C(=O)CNc1cc(C(F)(F)F)cc(C(F)(F)F)n1)c1ccc(F)cc1` [Example 7, 2-((4,6-bis(trifluoromethyl)pyridin-2-yl)amino)-N-(4-fluoro-phenyl)-N-methylacetamide]: below 0.2 µM; `Cc1cc2cc(N(C)C(=O)CNc3nc(C(F)(F)F)cc(C(F)(F)F)c3C#N)ccc2o1` [Example 52, 2-((3-cyano-4,6-bis(trifluoromethyl)pyridin-2-yl)amino)-N-methyl-N-(2-methylbenzofuran-5-yl)acetamide]: below 0.2 µM; `Cc1nc(OCC(=O)N(C)c2ccc(Cl)c(Cl)c2)c(C#N)c(C)c1Cl` [Example 33, 2-(5-chloro-3-cyano-4,6-dimethylpyridin-2-yloxy)-N-(3,4-dichlorophenyl)-N-methylacetamide]: below 0.2 µM.
Regarding `Cc1nc(NCC(=O)N(C)c2cccc(C#N)c2)c(C#N)c(C)c1Cl` [Example 21, 2-((5-chloro-3-cyano-4,6-dimethylpyridin-2-yl)-amino)-N-(3-cyanophenyl)-N-methylacetamide], the IC50 lay within 0.2 to 0.5 µM.
Next, `CN(C(=O)CNc1nc(C(F)(F)F)cc(C(F)(F)F)c1C#N)c1ccc2nccnc2c1` [Example 58, 2-((3-cyano-4,6-bis(trifluoromethyl)pyridin-2-yl)amino)-N-methyl-N-(quinoxalin-6-yl)acetamide]: below 0.2 µM; `Cc1cc(OCC(=O)N(C)c2ccccc2)nc(C)c1Cl` (racemic) [Example 36, 2-(5-chloro-4,6-dimethylpyridin-2-yloxy)-N-methyl-N-phenyl-acetamide]: 0.2 to 0.5 µM.
In turn, `CN(C(=O)CNc1nc(C(F)(F)F)cc(C(F)(F)F)c1C#N)c1ccc(F)cc1Cl` [Example 48, N-(2-chloro-4-fluorophenyl)-2-((3-cyano-4,6-bis(trifluoromethyl)pyridin-2-yl)-amino)-N-methylacetamide] had an IC50 below 0.2 µM.
Next, `CN(C(=O)CNc1nc(C(F)(F)F)cc(C(F)(F)F)c1C#N)c1ccc2c(c1)ncn2C` [Example 50, 2-((3-cyano-4,6-bis(trifluoromethyl)pyridin-2-yl)amino)-N-methyl-N-(1-methyl-1H-benzo[d]imidazol-5-yl)acetamide]: below 0.2 µM.
Next, `CN(C(=O)CNc1nc(C(F)(F)F)cc(C(F)(F)F)c1C#N)c1ccc2c(cnn2C)c1` [Example 54, 2-((3-cyano-4,6-bis(trifluoromethyl)pyridin-2-yl)amino)-N-methyl-N-(1-methyl-1H-indazol-5-yl)acetamide]: below 0.2 µM; `Cc1nc(N[C@@H](CC(N)=O)C(=O)N(C)c2ccc(F)cc2)c(C#N)c(C)c1Cl` [Example 18, (S)-2-(5-chloro-3-cyano-4,6-dimethylpyridin-2-yl-amino)-N1-(4-fluorophenyl)-N1-methylsuccinamide]: 0.2 to 0.5 µM; `Cc1nc(NCC(=O)N(C)c2ccccc2)c(C#N)cc1Cl` [Example 38, 2-(5-chloro-3-cyano-6-methylpyridin-2-ylamino)-N-methyl-N-phenylacetamide]: 0.2 to 0.5 µM.
Next, `CN(C(=O)CNc1nc(C(F)(F)F)cc(C(F)(F)F)c1C#N)c1ccc2sccc2c1` [Example 53, N-(benzo[b]thiophen-5-yl)-2-((3-cyano-4,6-bis(trifluoromethyl)pyridin-2-yl)-amino)-N-methylacetamide]: below 0.2 µM.
In turn, `CN(C(=O)CNc1nc(C(F)(F)F)cc(C(F)(F)F)c1C#N)c1ccc(F)cc1C#N` [Example 49, 2-((3-cyano-4,6-bis(trifluoromethyl)pyridin-2-yl)amino)-N-(2-cyano-4-fluorophenyl)-N-methylacetamide] yielded an IC50 of 0.5 to 1 µM.
Next, `N#Cc1c(C(F)(F)F)cc(C(F)(F)F)nc1NCC(=O)N(c1ccc(F)cc1)C1CC1` [Example 4, 2-((3-cyano-4,6-bis(trifluoromethyl)pyridin-2-yl)-amino)-N-cyclopropyl-N-(4-fluorophenyl)acetamide]: below 0.2 µM; `CN(C(=O)CNc1nc(C(F)(F)F)cc(C(F)(F)F)c1C#N)c1ccc(OC(F)(F)F)cc1` [Example 6, 2-((3-cyano-4,6-bis(trifluoromethyl)pyridin-2-yl)-amino)-N-methyl-N-(4-(trifluoromethoxy)phenyl)-acetamide]: below 0.2 µM; `Cc1c(Cl)cnc(NCC(=O)N(C)c2ccccc2)c1C#N` [Example 37, 2-(5-chloro-3-cyano-4-methylpyridin-2-ylamino)-N-methyl-N-phenylacetamide]: 0.2 to 0.5 µM.
Next, `CN(C(=O)COc1cc(Cl)cc(C(F)(F)F)c1)c1ccc(F)cc1` [Example 14, 2-[3-chloro-5-(trifluoromethyl)phenoxy]-N-(4-fluoro-phenyl)-N-methylacetamide]: 0.2 to 0.5 µM; `CN(C(=O)CNc1nc(C(F)(F)F)cc(C(F)(F)F)c1C#N)c1ccc2ncncc2c1` [Example 57, 2-((3-cyano-4,6-bis(trifluoromethyl)pyridin-2-yl)amino)-N-methyl-N-(quinazolin-6-yl)acetamide]: 0.2 to 0.5 µM; `Cc1nc(NCC(=O)N(C)c2ccc(F)cc2)c(C#N)c2c1CCC2` [Example 28, 2-(4-cyano-1-methyl-6,7-dihydro-5H-cyclopenta[c]-pyridin-3-ylamino)-N-(4-fluorophenyl)-N-methylacetamide]: below 0.2 µM.
In the case of `COc1ccc(N(C)C(=O)CNc2nc(C(F)(F)F)cc(C(F)(F)F)c2C#N)cc1` [Example 9, 2-[[3-cyano-4,6-bis(trifluoromethyl)pyridin-2-yl]-amino]-N-(4-methoxyphenyl)-N-methylacetamide], the IC50 is below 0.2 µM.
For the compound `CN(C(=O)CNc1nc(C(F)(F)F)cc(C(F)(F)F)c1C#N)c1ccc2[nH]ccc2c1` [Example 56, 2-((3-cyano-4,6-bis(trifluoromethyl)pyridin-2-yl)amino)-N-(1H-indol-5-yl)-N-methylacetamide], the IC50 is below 0.2 µM.
Next, `Cc1c(C#N)c(NCC(=O)N(C)c2ccc(F)cc2)nc2ccccc12` [Example 29, 2-[(3-cyano-4-methylquinolin-2-yl)amino]-N-(4-fluorophenyl)-N-methylacetamide]: 0.5 to 1 µM; `Cc1nc(NCC(=O)N(C)c2ccc(F)cc2)c(C#N)c2ccccc12` [Example 19, 2-[(4-cyano-1-methylisoquinolin-3-yl)amino]-N-(4-fluorophenyl)-N-methylacetamide]: below 0.2 µM; `COc1ccc(N(C)C(=O)CNc2nc(C)c(Cl)c(C)c2C#N)cc1` [Example 22, 2-(5-chloro-3-cyano-4,6-dimethylpyridin-2-ylamino)-N-(4-methoxyphenyl)-N-methylacetamide]: below 0.2 µM.
Next, `CN(C(=O)CNc1nc(C(F)(F)F)cc(C(F)(F)F)n1)c1ccc(F)cc1` [Example 2, 2-(4,6-bis(trifluoromethyl)pyrimidin-2-ylamino)-N-(4-fluoro-phenyl)-N-methylacetamide]: below 0.2 µM; `Cc1coc2ccc(N(C)C(=O)CNc3nc(C(F)(F)F)cc(C(F)(F)F)c3C#N)cc12` [Example 51, 2-((3-cyano-4,6-bis(trifluoromethyl)pyridin-2-yl)amino)-N-methyl-N-(3-methylbenzofuran-5-yl)acetamide]: below 0.2 µM.
Next, `CN(C(=O)CNc1nc(C(F)(F)F)cc(C(F)(F)F)c1C#N)c1cccc(C(N)=O)c1` [Example 1, 3-(2-(3-cyano-4,6-bis(trifluoromethyl)pyridin-2-yl-amino)-N-methylacetamido)benzamide]: 0.5 to 1 µM.
